Converted amounts (≈) assume the structure as drawn. The source made the active and inactive calls. The calls are words filed in the database; no cut-off is given here.
Tests used:
HepG2 [1] = assay: Induction of TRIB1 expression in human HepG2 cells measured after overnight incubation by qRT-PCR analysis; type: functional, cell-based
HepG2 [2] = assay: Induction of LDLR expression in human HepG2 cells by luminex assay; type: functional, cell-based
HepG2 [3] = assay: Induction of LDL uptake in human HepG2 cells preincubated for 20 hrs followed by BODIPY-FL-LDL addition and measured after 5 hrs by Hoechst 33342 staining based microscopic analysis; type: functional, cell-based
HepG2 [4] = assay: Up regulation of LDLR expression in human HepG2 cells after 24 hrs by ELISA; type: functional, cell-based
HepG2 [5] = assay: Down regulation of PCSK9 expression in human HepG2 cells after 24 hrs by ELISA; type: functional, cell-based
HepG2 [6] = assay: Inhibition of PCSK9 secretion in human HepG2 cells by luminex assay; type: functional, cell-based
HepG2 [7] = assay: Induction of TRIB1 expression in human HepG2 cells assessed as reduction in 13[C3]-D5-glycerol incorporation into C50:2 triglyceride at 2 uM preincubated for 24 hrs followed by 13[C3]-D5-glycerol addition and measured by LC/MS analysis; type: functional, cell-based
HepG2 [8] = assay: Induction of TRIB1 expression in human HepG2 cells assessed as increase in ApoB secretion measured after 24 hrs by ELISA; type: functional, cell-based
HepG2 [9] = assay: Up regulation of LDLR gene expression in human HepG2 cells measured after 6 hrs by qRT-PCR analysis; type: functional, cell-based; settings: HepG2, 6 h
HepG2 [10] = assay: Up regulation of EGR1 expression in human HepG2 cells at 1 uM measured after 6 hrs by transcriptional profiling analysis; type: functional, cell-based
HepG2 [11] = assay: Down regulation of MTTP gene expression in human HepG2 cells at 1 uM measured after 24 hrs by transcriptional profiling analysis; type: functional, cell-based
[12] = AUC (infinity) in C57BL/6 mouse plasma at 10 mg/kg, ip administered as single dose by mass spectrometry; type: ADME, organism-based; parameters: dose 10 mg/kg, route intraperitoneal, time infinity; settings: in vivo
HepG2 [13] = assay: Up regulation of JUNB expression in human HepG2 cells at 1 uM measured after 6 hrs by transcriptional profiling analysis; type: functional, cell-based
[14] = Half life in C57BL/6 mouse plasma at 10 mg/kg, ip administered as single dose by mass spectrometry; type: ADME, organism-based
[15] = target: T1, Mitogen-activated protein kinase; ERK1/ERK2 (Homo sapiens) (UniProt P27361+P28482); assay: Activation of ERK1/2 phosphorylation in human HepG2 cells assessed as ratio of phosphorylated ERK1/2 to total ERK1/2 at 2 uM after 30 mins by Western blot analysis relative to control; type: cell-based
T1 sequence (P27361 whole entry, looked up): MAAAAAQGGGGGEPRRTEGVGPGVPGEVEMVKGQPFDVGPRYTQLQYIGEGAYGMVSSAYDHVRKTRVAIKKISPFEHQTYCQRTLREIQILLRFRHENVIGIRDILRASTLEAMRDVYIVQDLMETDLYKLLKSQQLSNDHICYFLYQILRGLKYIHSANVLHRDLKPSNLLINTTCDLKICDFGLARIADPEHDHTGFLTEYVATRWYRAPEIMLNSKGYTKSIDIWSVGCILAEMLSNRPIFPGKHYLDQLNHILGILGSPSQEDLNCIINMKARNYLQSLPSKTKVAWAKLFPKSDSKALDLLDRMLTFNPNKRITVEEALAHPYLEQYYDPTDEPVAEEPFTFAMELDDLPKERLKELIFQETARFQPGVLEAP
T1 sequence (P28482 whole entry, looked up): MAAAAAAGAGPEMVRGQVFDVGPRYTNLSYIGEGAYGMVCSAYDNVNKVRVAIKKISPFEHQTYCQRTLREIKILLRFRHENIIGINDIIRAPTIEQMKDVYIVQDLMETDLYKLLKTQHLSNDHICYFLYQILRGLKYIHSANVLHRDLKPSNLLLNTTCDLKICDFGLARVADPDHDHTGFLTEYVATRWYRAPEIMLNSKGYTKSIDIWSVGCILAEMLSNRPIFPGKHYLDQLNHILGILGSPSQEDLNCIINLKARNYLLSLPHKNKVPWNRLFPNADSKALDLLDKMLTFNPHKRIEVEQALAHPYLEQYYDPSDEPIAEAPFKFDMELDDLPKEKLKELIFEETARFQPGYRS

HepG2 [16] = assay: Down regulation of ACAT2 gene expression in human HepG2 cells at 1 uM measured after 24 hrs by transcriptional profiling analysis; type: functional, cell-based
HepG2 [17] = assay: Down regulation of APOC3 gene expression in human HepG2 cells at 1 uM measured after 24 hrs by transcriptional profiling analysis; type: functional, cell-based
[18] = Cmax in C57BL/6 mouse liver at 10 mg/kg, ip administered as single dose by mass spectrometry; type: ADME, organism-based; parameters: dose 10 mg/kg, route intraperitoneal
HepG2 [19] = assay: Up regulation of FOS expression in human HepG2 cells at 1 uM measured after 6 hrs by transcriptional profiling analysis; type: functional, cell-based
HepG2 [20] = assay: Down regulation of MOGAT2 gene expression in human HepG2 cells at 1 uM measured after 24 hrs by transcriptional profiling analysis; type: functional, cell-based
HepG2 [21] = assay: Down regulation of HMGCR gene expression in human HepG2 cells at 1 uM measured after 24 hrs by transcriptional profiling analysis; type: functional, cell-based
HepG2 [22] = assay: Up regulation of LDLR expression in human HepG2 cells at 10 uM measured after 6 hrs in presence of MEK inhibitor U0126 by qRT-PCR analysis; type: functional, cell-based
HepG2 [23] = assay: Up regulation of LDLR gene expression in human HepG2 cells measured after 6 hrs by qRT-PCR analysis relative to control; type: functional
[24] = Unbound fraction in C57BL/6 mouse liver at 10 mg/kg, ip administered as single dose by mass spectrometry; type: ADME, organism-based
HepG2 [25] = assay: Effect on SREBF2 expression in human HepG2 cells at 1 uM measured after 6 to 24 hrs by transcriptional profiling analysis; type: functional, cell-based
[26] = Clearance in C57BL/6 mouse plasma at 10 mg/kg, ip administered as single dose by mass spectrometry; type: ADME, organism-based
[27] = Apparent volume of distribution in C57BL/6 mouse plasma at 10 mg/kg, ip administered as single dose by mass spectrometry; type: ADME, organism-based; settings: in vivo
HepG2 [28] = assay: Up regulation of LDLR gene expression in human HepG2 cells at 2 uM after 6 hrs in presence of simvastatin by qRT-PCR analysis; type: functional, cell-based
HepG2 [29] = assay: Down regulation of DGAT1 gene expression in human HepG2 cells at 1 uM measured after 24 hrs by transcriptional profiling analysis; type: functional, cell-based
HepG2 [30] = assay: Up regulation of LDLR expression in human HepG2 cells at 1 uM measured after 6 to 24 hrs by transcriptional profiling analysis; type: functional, cell-based
HepG2 [31] = assay: Up regulation of TRIB1 gene expression in human HepG2 cells measured after 6 hrs by qRT-PCR analysis; type: functional, cell-based; settings: HepG2, 6 h
HepG2 [32] = assay: Up regulation of ZFP36 expression in human HepG2 cells at 1 uM measured after 6 hrs by transcriptional profiling analysis; type: functional, cell-based
[33] = Cmax in C57BL/6 mouse plasma at 10 mg/kg, ip administered as single dose by mass spectrometry; type: ADME, organism-based; parameters: dose 10 mg/kg, route intraperitoneal
HepG2 [34] = assay: Down regulation of PCSK9 gene expression in human HepG2 cells cultured in cholesterol depleted media at 2.5 uM after 24 hrs by qRT-PCR analysis; type: functional, cell-based
HepG2 [35] = assay: Up regulation of LDLR gene expression in human HepG2 cells cultured in cholesterol depleted media at 2.5 uM after 6 hrs by qRT-PCR analysis; type: functional, cell-based
[36] = target: T1, Mitogen-activated protein kinase; ERK1/ERK2 (Homo sapiens); assay: Activation of ERK1/2 phosphorylation in human HepG2 cells assessed as ratio of phosphorylated ERK1/2 to total ERK1/2 at 2 uM after 6 hrs by Western blot analysis relative to control; type: cell-based
HepG2 [37] = assay: Up regulation of TRIB1 gene expression in human HepG2 cells measured after 6 hrs by qRT-PCR analysis relative to control; type: functional
HepG2 [38] = assay: Down regulation of LSS gene expression in human HepG2 cells at 1 uM measured after 24 hrs by transcriptional profiling analysis; type: functional, cell-based
HepG2 [39] = assay: Down regulation of HMGCS1 gene expression in human HepG2 cells at 1 uM measured after 24 hrs by transcriptional profiling analysis; type: functional, cell-based
HepG2 [40] = assay: Up regulation of LDLR expression in human HepG2 cells at 10 uM measured after 6 hrs in presence of JAK inhibitor CP-690550 by qRT-PCR analysis; type: functional, cell-based
[41] = Stability in mouse liver microsomes assessed as parent compound remaining at 1 uM incubated for 60 mins under shaking condition by UPLC/MS analysis; type: ADME, Microsome; settings: read-out: Stability
HepG2 [42] = assay: Induction of TRIB1 expression in human HepG2 cells assessed as reduction in 13[C3]-D5-glycerol incorporation into C48:2 triglyceride at 2 uM preincubated for 24 hrs followed by 13[C3]-D5-glycerol addition and measured by LC/MS analysis; type: functional, cell-based
HepG2 [43] = assay: Up regulation of PCSK9 gene expression in human HepG2 cells at 2 uM after 24 hrs in presence of atorvastatin by qRT-PCR analysis; type: functional, cell-based
HepG2 [44] = assay: Up regulation of TRIB1 expression in human HepG2 cells at 1 uM measured after 6 to 24 hrs by transcriptional profiling analysis; type: functional, cell-based
HepG2 [45] = assay: Up regulation of DUSP1 expression in human HepG2 cells at 1 uM measured after 6 hrs by transcriptional profiling analysis; type: functional, cell-based
HepG2 [46] = assay: Up regulation of ATF3 expression in human HepG2 cells at 1 uM measured after 6 hrs by transcriptional profiling analysis; type: functional, cell-based
HepG2 [47] = assay: Down regulation of PCSK9 gene expression in human HepG2 cells measured after 24 hrs by qRT-PCR analysis; type: functional, cell-based; settings: HepG2, 24 h
HepG2 [48] = assay: Effect on SREBF1 expression in human HepG2 cells at 1 uM measured after 6 to 24 hrs by transcriptional profiling analysis; type: functional, cell-based
[49] = AUC (infinity) in C57BL/6 mouse liver at 10 mg/kg, ip administered as single dose by mass spectrometry; type: ADME, organism-based; parameters: dose 10 mg/kg, route intraperitoneal, time infinity; settings: in vivo
HepG2 [50] = assay: Up regulation of JUN expression in human HepG2 cells at 1 uM measured after 6 hrs by transcriptional profiling analysis; type: functional, cell-based
HepG2 [51] = assay: Down regulation of MVK gene expression in human HepG2 cells at 1 uM measured after 24 hrs by transcriptional profiling analysis; type: functional, cell-based
[52] = Half life in C57BL/6 mouse liver at 10 mg/kg, ip administered as single dose by mass spectrometry; type: ADME, organism-based
[53] = Tmax in C57BL/6 mouse liver at 10 mg/kg, ip administered as single dose by mass spectrometry; type: ADME, organism-based
[54] = Tmax in C57BL/6 mouse plasma at 10 mg/kg, ip administered as single dose by mass spectrometry; type: ADME, organism-based
[55] = Apparent volume of distribution in C57BL/6 mouse liver at 10 mg/kg, ip administered as single dose by mass spectrometry; type: ADME, organism-based; settings: in vivo
[56] = Solubility of the compound in 1% DMSO/phosphate buffered saline at pH 7.4 incubated for 18 hrs under shaking condition by UPLC/MS analysis; type: physicochemical
[57] = Toxicity in C57BL/6 mouse at 15 to 45 mg/kg, ip administered as single dose measured over 24 hrs; type: organism-based; settings: in vivo
[58] = Drug uptake in C57BL/6 mouse at 15 to 45 mg/kg, ip administered as single dose measured at 8 to 12 hrs post dose by mass spectrometry; type: ADME, organism-based; settings: in vivo

CN1C(=O)c2cc(NC(=O)c3ccc(C(F)(F)F)cc3)ccc2OC[C@H]2O[C@@H](CC(=O)NC3Cc4ccccc4C3)CC[C@@H]21
EC50 (HepG2 [1]): > 25000 nM

CN1C(=O)c2cc(NC(=O)c3ccc(C(F)(F)F)cc3)ccc2OC[C@@H]2O[C@@H](CC(=O)NC3Cc4ccccc4C3)CC[C@@H]21
EC50 (HepG2 [1]): 2030 nM
Activity (HepG2 [2]): Active
Activity (HepG2 [3]): Active
Activity (HepG2 [4]): Active
Activity (HepG2 [5]): Active
inhibition (HepG2 [6]): Active

CN1C(=O)c2cc(NC(=O)c3ccc(C(F)(F)F)cc3)ccc2OC[C@@H]2O[C@H](CC(=O)NC3Cc4ccccc4C3)CC[C@@H]21
EC50 (HepG2 [1]): 230 nM
Activity (HepG2 [7]): Active
Activity (HepG2 [8]): Active
EC50 (HepG2 [9]): 490 nM
Activity (HepG2 [10]): Active
Activity (HepG2 [11]): Active
AUC [12]: 1010 µg/L/h
Activity (HepG2 [13]): Active
half-life [14]: 1.63 h
fold change (FC) [15]: 2
Activity (HepG2 [16]): Active
Activity (HepG2 [17]): Active
Cmax [18]: 4660 ng/mL
Activity (HepG2 [19]): Active
Activity (HepG2 [20]): Active
Activity (HepG2 [21]): Active
Activity (HepG2 [22]): inactive
max activation (HepG2 [23]): 4.8
fraction unbound [24]: 0.01
Activity (HepG2 [25]): inactive
CL/F [26]: 165 mL/min/kg
Vz [27]: 23.3 L/kg
Activity (HepG2 [28]): Active
Activity (HepG2 [29]): Active
Activity (HepG2 [30]): Active
EC50 (HepG2 [31]): 430 nM
Activity (HepG2 [32]): Active
Cmax [33]: 437 ng/mL
Activity (HepG2 [34]): Active
Activity (HepG2 [35]): Active
Activity (HepG2 [3]): Active
fold change (FC) [36]: 2
Activity (HepG2 [4]): Active
max activation (HepG2 [37]): 4.7
Activity (HepG2 [5]): Active
Activity (HepG2 [38]): Active
Activity (HepG2 [39]): Active
Activity (HepG2 [40]): Active
remaining at 1 h, 1 µM [41]: 0%
Activity (HepG2 [42]): Active
Activity (HepG2 [43]): inactive
Activity (HepG2 [44]): Active
Activity (HepG2 [45]): Active
Activity (HepG2 [46]): Active
EC50 (HepG2 [47]): 240 nM
Activity (HepG2 [48]): inactive
AUC [49]: 11558 µg/L/h
Activity (HepG2 [50]): Active
Activity (HepG2 [51]): Active
half-life [52]: 2.25 h
Tmax [53]: 4.8 min
Tmax [54]: 1 h
Vz [55]: 2.81 L/kg

CC(C)COC(=O)NC[C@@H]1CC[C@H]2[C@H](COc3ccc(NC(=O)c4ccc(C(F)(F)F)cc4)cc3C(=O)N2C)O1
EC50 (HepG2 [9]): 170 nM
AUC [12]: 3616 µg/L/h
half-life [14]: 1.12 h
solubility kinetic at 18 h [56]: 7 µM (≈ 3.95 µg/mL)
Cmax [18]: 13100 ng/mL
max activation (HepG2 [23]): 3.7
fraction unbound [24]: 0.01
CL/F [26]: 46.2 mL/min/kg
Vz [27]: 4.48 L/kg
Activity [57]: Non-Toxic
EC50 (HepG2 [31]): 80 nM
Cmax [33]: 2310 ng/mL
max activation (HepG2 [37]): 5.8
remaining at 1 h, 1 µM [41]: 28%
Drug uptake [58]: Active
EC50 (HepG2 [47]): 60 nM
AUC [49]: 16803 µg/L/h
half-life [52]: 1.16 h
Tmax [53]: 4.8 min
Tmax [54]: 0.5 h
Vz [55]: 0.99 L/kg
